Patent US20050019765A1, “Methods for treating disorders of the nervous and reproductive systems” (priority 2001, published 2005)

Tested on: murine sperm
Experiment: chlortetracycline assay for capacitation of murine sperm in vitro
Assay type: cell-based
From the text: ABCA1 generates HDL by transferring cholesterol onto apoprotein-A1 (apoA1) in a process known as cholesterol efflux, which is also an essential component of male fertility. Sperm are made in the testes and released into the epididymis, where they await ejaculation into the female reproductive tract. Although differentiated, epididymal sperm are not capable of fertilization and must first complete their maturation in the female reproductive tract. This maturation process is known as capacitation and is known to require efflux of cholesterol from the sperm plasma membrane. How this occurs at the molecular level is not well understood. The present invention relies in part on the discovery that ABCA1 is highly expressed in the testes (being present in Sertoli and Leydig cells as well as in differentiating spermatids). […] In accordance with the present invention, ABCA1 is also present in epididymal sperm where it can act to transport cholesterol during capacitation. In vivo, follicular HDL is an endogenous cholesterol acceptor for capacitating sperm, and HDL can stimulate capacitation in vitro. In accordance with the present invention, because cholesterol efflux through ABCA1 is dependent upon apoA1 the ability of apoA1 to stimulate capacitation of murine sperm in vitro was tested using a chlortetracycline assay.

## de-lipidated apoA1: apoprotein-A1, the acceptor onto which ABCA1 transfers cholesterol in cholesterol efflux
  ability to stimulate capacitation of murine sperm: capacitates sperm in a dose-dependent manner
